Measurements from PMC11239938, “Inhibition of DUSP18 impairs cholesterol biosynthesis and promotes anti-tumor immunity in colorectal cancer” (Nature Communications, 2024).

What was measured:
DUSP18 [1] = target: T1, DUSP18 (Homo sapiens, UniProt Q8NEJ0); test: microscale thermophoresis
T1 construct: purified human DUSP18 for MST (Methods: cell samples lysed with RIPA buffer); recombinant GST-DUSP18-His for dephosphorylation assay; endogenous in HCT116 and SW480 cells for CETSA
T1 sequence (Q8NEJ0 1-188): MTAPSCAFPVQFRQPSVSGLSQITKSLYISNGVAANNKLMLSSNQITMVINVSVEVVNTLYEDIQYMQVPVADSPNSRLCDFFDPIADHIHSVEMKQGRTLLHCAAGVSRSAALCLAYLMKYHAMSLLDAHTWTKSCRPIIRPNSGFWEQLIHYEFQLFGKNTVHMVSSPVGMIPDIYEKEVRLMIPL
Protocol: microscale thermophoresis on DUSP18 | Kd) value was determined as the binding of Lumacaftor to purified human DUSP18

DUSP18 [2] = target: T1, DUSP18; test: in vitro dephosphorylation of Flag-USF1, phospho-immunoblot; format: biochemical; conditions: 40 μM Lumacaftor; recombinant GST-DUSP18-His; substrate Flag-USF1 WT

Kd (DUSP18 [1]): 29.5 ± 3.5 µM
Compound: Cc1ccc(NC(=O)C2(c3ccc4c(c3)OC(F)(F)O4)CC2)nc1-c1cccc(C(=O)O)c1 [Lumacaftor]
in vitro dephosphorylation of Flag-USF1, phospho-immunoblot (DUSP18 [2]): Lumacaftor inhibited the ability of purified DUSP18 to dephosphorylate WT USF1
